# Data published in paper PMC11357992, “Non-invasive mapping of systemic neutrophil dynamics upon cardiovascular injury” (Nature Cardiovascular Research, 2023).
# “And” between values parts separate entries of the source, which are not always exact repeats. Identical values can stand only once. Where no end group is shown, it is not given here. carboxyfluorescein = N-terminal fluorescence label (CF)
# Key:
# [1] = Dynamic light scattering and ζ potential of PFCs; assay type: physicochemical; details: panel B raw data, single replicates #1-#6
# Method: Dynamic light scattering and the ζ potential were measured as described previously[9],[32] at 25 °C using a Nanotrac Wave II analyzer (Microtrac) driven by Microtrac FLEX Software 3.4.
# (§1) Extended Data Fig. 8 Physicochemical properties and cellular uptake of ^hNPPFCs. a, Cellular uptake of ^hNPPFCs by human monocyte subsets and neutrophils: Human immune cells isolated from the blood of healthy volunteers were incubated with ^hNPPFCs. Subsequently, cells were stained with CD11b, CD14 and CD16 to differentiate between neutrophils (red), classical monocytes (gray) and non-classical monocytes (blue) and the cells were analyzed by flow cytometry. The cellular uptake of ^hNPPFCs was determined under unstimulated conditions (top) and after treatment with 1 µg/ml LPS (bottom). b, Physicochemical properties of the generated nanotracers: Characterization of size, size distribution and ζ potential of ^MalPFCs and targeting PFCs (^hNPPFCs, ^ConPFCs) by dynamic light scattering (DLS). The rhodamine fluorescence signal of the PCS was determined by IVIS imaging and the ^19F content by ^19F MRI. c-e, Cryo transmission electron microscopy of the generated nanotracers: c, Cryo transmission electron microscopy (cryo-TEM) of ^hNPPFCs and ^ConPFCs. Graphs: The diameter of the PFCs was determined manually from three images categorized into 25 nm groups. […] Data are derived from three images for ^hNPPFCs and ^ConPFCs each. d, Box plot (box and whiskers; min to max) of the diameter of ^ConPFCs/^hNPPFCs calculated from cryo-TEM images. e, Relative amount of liposomes (%) in individual cryo-TEM images. The number of PFCs and liposomes was manually determined (n = 4/5 images). Red arrows in the cryo-TEM images indicate liposomes. Data are mean values ± SD of n = 5-6 (a), n = 3-6 (b), n = 3 (c), n = 3 (d) and n = 6 (e) independent experiments; *** = p < 0.001, verified by one-way ANOVA (a). Source data
# [2] = system: human lymphocytes, monocytes or neutrophils; assay: Uptake of hNPPFCs/ConPFCs by human blood immune cells, flow cytometry; assay type: cell-based; details: for uptake by lymphocytes, raw data (flow cytometry): human lymphocytes; for uptake by lymphocytes, raw data (flow cytometry) / uptake by monocytes, raw data (flow cytometry): single samples #1-#4; for uptake by monocytes, raw data (flow cytometry): human monocytes
# Method: Blood was collected from the vena brachialis, and erythrocytes were lysed as described above. After 10 min of incubation, samples were centrifuged at 350g for 10 min at 20 °C. For isolation of a purified neutrophil fraction, density gradient centrifugation was performed. Five milliliters of Ficoll 1.077 (Sigma-Aldrich) was layered on 5 ml Ficoll 1.119 (Sigma-Aldrich), and 20 ml of whole blood diluted 1:2 with PBS was carefully layered on the Ficoll 1.077. Samples were centrifuged at 350g for 20 min with low acceleration and brake. The neutrophil layer was isolated by careful aspiration and washed with PBS. Isolated cells were resuspended in MACS buffer.
# Human immune cells were discriminated by staining for CD45 (BioLegend, clone HI30), CD11b (BD Biosciences, clone ICRF44), CD14 (BioLegend, clone M5E2) and CD16 (BD Biosciences, clone 3G8) (lymphocytes, CD45^+CD11b^−CD16^−; classical monocytes, CD45^+CD11b^+CD14^++CD16^−; non-classical monocytes, CD45^+CD11b^+CD14^+CD16^++; neutrophils, CD45^+CD11b^+CD16^+). Murine immune cells were discriminated by staining for CD45 (BD Biosciences, clone 30-F11), CD11b (BioLegend, clone M1/70), Ly6G (BD Biosciences, clone 1A8), Ly6C (BioLegend, clone HK1.4) and F4/80 (BioLegend, clone BM8) (lymphocytes, CD45^+CD11b^−Ly6G^−; classical monocytes, CD45^+CD11b^+Ly6G^−Ly6C^hi; non-classical monocytes, CD45^+CD11b^+Ly6G^−Ly6C^lo; neutrophils, CD45^+CD11b^+Ly6G^+; eosinophils, CD45^+CD11b^+Ly6G^+SSC^hiFSC^lo). Both human and murine cells were stained for 20 min at 4 °C, followed by washing with 200 µl MACS buffer.
# If not mentioned otherwise, neutrophil-specific peptide or Con (both at 1 µg ml^−1) were incubated for 20 min at 4 °C, while ^NPPFCs or ^ConPFCs were incubated at a concentration of 10 µl ml^−1 for the indicated period of time, followed by two washing steps with 200 µl MACS buffer.
# A total of 1 × 10^6 cells were incubated with 10 µl of the emulsion over a period of 80 min at 37 °C. At distinct time points, 50 µl of the samples were transferred into 2 ml of ice-cold MACS buffer and analyzed for rhodamine fluorescence by flow cytometry.
# as §1
# human neutrophils = assay: Migration of human neutrophils toward IL-8 (Boyden chamber); assay type: cell-based; details: 50 µl hNPPFCs, 1 h, 37 °C; 100 ng ml^−1 IL-8
# Method: A total of 1 × 10^6 isolated human neutrophils were incubated with or without 50 µl ^hNPPFCs for 1 h at 37 °C in 1 ml DMEM. After washing with DMEM, 1 × 10^5 of these cells were placed in a Boyden chamber containing 200 µl DMEM. The lower part of the chamber contained 100 ng ml^−1 IL-8 in 1 ml DMEM. After 1 h in an incubator, the flow through was collected, and the number of neutrophils was counted by flow cytometry. Murine neutrophils were isolated from Matrigel–LPS plugs and stained for Ly6G. Afterward, cells were washed twice, and the number of neutrophils was determined by flow cytometry.
# [3] = 19F content of PFCs by 19F MRI; assay type: physicochemical; details: panel B raw data, single replicates #1-#3
# Method: Extended Data Fig. 8 Physicochemical properties and cellular uptake of ^hNPPFCs. a, Cellular uptake of ^hNPPFCs by human monocyte subsets and neutrophils: Human immune cells isolated from the blood of healthy volunteers were incubated with ^hNPPFCs. Subsequently, cells were stained with CD11b, CD14 and CD16 to differentiate between neutrophils (red), classical monocytes (gray) and non-classical monocytes (blue) and the cells were analyzed by flow cytometry. The cellular uptake of ^hNPPFCs was determined under unstimulated conditions (top) and after treatment with 1 µg/ml LPS (bottom). b, Physicochemical properties of the generated nanotracers: Characterization of size, size distribution and ζ potential of ^MalPFCs and targeting PFCs (^hNPPFCs, ^ConPFCs) by dynamic light scattering (DLS). The rhodamine fluorescence signal of the PCS was determined by IVIS imaging and the ^19F content by ^19F MRI. c-e, Cryo transmission electron microscopy of the generated nanotracers: c, Cryo transmission electron microscopy (cryo-TEM) of ^hNPPFCs and ^ConPFCs. Graphs: The diameter of the PFCs was determined manually from three images categorized into 25 nm groups. […] The number of PFCs and liposomes was manually determined (n = 4/5 images). […]
substance,measurement,setting,value
hNPPFCs: PEGylated rhodamine-labeled perfluorocarbon nanoemulsion coupled with human neutrophil-specific peptide hNP (carboxyfluorescein-DLVTSKLQVGGGC; also: C-terminal Cys coupled via maleimide-PEG2000-DSPE to rhodamine-labelled perfluorocarbon nanoemulsion),PDI,[1]; dynamic light scattering,0.08 and 0.07
same,Size,[1]; dynamic light scattering,91.7 and 97.8 and 100.7 and 101.3 and 102.8 and 95.3
same,zeta potential,[1],-30.64 and -34.35 and -35.76 and -32.06 and -35.94 and -33.07
same,"uptake by neutrophils, Ctrl - hNPPFCs, raw data","[2]; Ctrl donors, time 0, single samples #1-#8",68.6 and 64 and 91.8 and 102 and 91.2 and 87.9 and 78.2 and 76.6
same,"uptake by human monocytes and their subtypes, flow cytometry",[2]; also under LPS stimulation (1 µg/ml),only minor uptake
same,"uptake by lymphocytes, raw data (flow cytometry)",[2]; incubation 0 min,14.8 and 22.7 and 17.1 and 13
same,"uptake by lymphocytes, raw data (flow cytometry)",[2]; incubation 40 min,125 and 107 and 139 and 206
same,"uptake by lymphocytes, raw data (flow cytometry)",[2]; incubation 80 min,149 and 177 and 157 and 227
same,"uptake by monocytes, raw data (flow cytometry)",[2]; incubation 0 min,41.4 and 45.1 and 42.3 and 29.9
same,"uptake by monocytes, raw data (flow cytometry)",[2]; incubation 10 min,285 and 252 and 274 and 459
same,"uptake by monocytes, raw data (flow cytometry)",[2]; incubation 20 min,318 and 557 and 425 and 621
same,"uptake by monocytes, raw data (flow cytometry)",[2]; incubation 40 min,616 and 798 and 629 and 741
same,"uptake by monocytes, raw data (flow cytometry)",[2]; incubation 80 min,938 and 1088 and 771 and 1126
same,"uptake by neutrophils, raw data (flow cytometry)","[2]; human neutrophils, incubation 0 min, single samples #1-#9",76.6 and 91.8 and 102 and 91.2 and 87.9 and 78.2
same,"binding to human lymphocytes, flow cytometry",[2]; immune cells from human blood,no binding to lymphocytes
same,"binding to human neutrophils, flow cytometry",[2]; immune cells from human blood,avidly bound to neutrophils
same,human neutrophils labeled by hNPPFCs,[2]; of all human neutrophils in the authors' samples (CD177 not present on all),50–60%
same,migration of human neutrophils toward IL-8,human neutrophils,no evidence for any changes in their chemotactic properties
same,19F amount,[3],6.421 and 6.014 and 6.958
